Laboratory results taken from ChEMBL document CHEMBL4138197, “Design, synthesis and pharmacological evaluation of N-(5-chloro-2,4-dihydroxybenzoyl)-(R)-N-arylmethyl-1,2,3,4-tetrahydro-3-isoquinolinecarboxamides as potent Hsp90 inhibitors” (Eur J Med Chem, 2018).

Assays:
A549 = test: Antiproliferative activity against human A549 cells after 72 hrs by SRB assay; type: functional, cell-based; conditions: A549, 72 h
MDA-MB-231 = test: Antiproliferative activity against human MDA-MB-231 cells after 72 hrs by SRB assay; type: functional, cell-based; conditions: MDA-MB-231, 72 h

Row | Compound | IC50 (A549) | IC50 (MDA-MB-231)
1 | O=C(NCc1cccnc1)[C@H]1Cc2ccccc2CN1C(=O)c1cc(Cl)c(O)cc1O | 1.51 µM | 0.82 µM
2 | O=C(NCc1ccc(Cl)cc1)[C@H]1Cc2ccccc2CN1C(=O)c1cc(Cl)c(O)cc1O | 0.75 µM | 0.78 µM
3 | O=C(NCc1ccc([N+](=O)[O-])cc1)[C@H]1Cc2ccccc2CN1C(=O)c1cc(Cl)c(O)cc1O | 0.54 µM | 0.4 µM
4 | Cc1ccccc1CNC(=O)[C@H]1Cc2ccccc2CN1C(=O)c1cc(Cl)c(O)cc1O | 0.65 µM | 1.46 µM
5 | COc1cc(CNC(=O)[C@H]2Cc3ccccc3CN2C(=O)c2cc(Cl)c(O)cc2O)ccc1O | 2.61 µM | 2.16 µM
6 | O=C(NCc1ccc(Cl)c(Cl)c1)[C@H]1Cc2ccccc2CN1C(=O)c1cc(Cl)c(O)cc1O | 1.46 µM | 1.61 µM
7 | O=C(NCc1cccc(Cl)c1)[C@H]1Cc2ccccc2CN1C(=O)c1cc(Cl)c(O)cc1O | 1.81 µM | 1.96 µM
8 | N#Cc1cccc(CNC(=O)[C@H]2Cc3ccccc3CN2C(=O)c2cc(Cl)c(O)cc2O)c1 | 0.5 µM | 0.65 µM
9 | COc1ccc(CNC(=O)[C@H]2Cc3ccccc3CN2C(=O)c2cc(Cl)c(O)cc2O)cc1 | 1.06 µM | 0.9 µM
10 | O=C(NCc1ccc2c(c1)OCO2)[C@H]1Cc2ccccc2CN1C(=O)c1cc(Cl)c(O)cc1O | 0.65 µM | 0.7 µM
11 | O=C(NCc1ccccn1)[C@H]1Cc2ccccc2CN1C(=O)c1cc(Cl)c(O)cc1O | 0.89 µM | 0.63 µM
12 | O=C(NCc1ccc(OC(F)(F)F)cc1)[C@H]1Cc2ccccc2CN1C(=O)c1cc(Cl)c(O)cc1O | 2.16 µM | 2.26 µM
13 | COC1=C2C[C@@H](C)C[C@H](OC)[C@H](O)[C@@H](C)/C=C(\C)[C@H](OC(N)=O)[C@@H](OC)/C=C\C=C(/C)C(=O)NC(=CC1=O)C2=O [GELDANAMYCIN] | 0.1 µM | 0.06 µM
14 | N#Cc1ccc(CNC(=O)[C@H]2Cc3ccccc3CN2C(=O)c2cc(Cl)c(O)cc2O)nc1 | 0.62 µM | 0.53 µM
15 | CN(C)c1ccc(CNC(=O)[C@H]2Cc3ccccc3CN2C(=O)c2cc(Cl)c(O)cc2O)cc1 | 0.45 µM | 0.4 µM
16 | Cc1ccc(CNC(=O)[C@H]2Cc3ccccc3CN2C(=O)c2cc(Cl)c(O)cc2O)cc1 | 0.53 µM | 0.6 µM
17 | O=C(NCc1ccc2c(c1)CCO2)[C@H]1Cc2ccccc2CN1C(=O)c1cc(Cl)c(O)cc1O | 1.06 µM | 0.9 µM
18 | O=C(NCc1ccco1)[C@H]1Cc2ccccc2CN1C(=O)c1cc(Cl)c(O)cc1O | 0.89 µM | 0.5 µM

Row | Compound | IC50 (A549) | IC50 (MDA-MB-231)
19 | O=C(NCc1cccc([N+](=O)[O-])c1)[C@H]1Cc2ccccc2CN1C(=O)c1cc(Cl)c(O)cc1O | 0.65 µM | 0.8 µM
20 | O=C(NCc1cccc2ccccc12)[C@H]1Cc2ccccc2CN1C(=O)c1cc(Cl)c(O)cc1O | 2.76 µM | 2.41 µM
21 | N#Cc1ccc(CNC(=O)[C@H]2Cc3ccccc3CN2C(=O)c2cc(Cl)c(O)cc2O)cc1 | 0.35 µM | 0.35 µM
22 | Cc1cccc(CNC(=O)[C@H]2Cc3ccccc3CN2C(=O)c2cc(Cl)c(O)cc2O)c1 | 0.96 µM | 1.76 µM
23 | COc1cc(CNC(=O)[C@H]2Cc3ccccc3CN2C(=O)c2cc(Cl)c(O)cc2O)cc(OC)c1OC | 2.66 µM | 2.21 µM
24 | N#Cc1ccc(CNC(=O)[C@H]2Cc3ccccc3CN2C(=O)c2cc(Cl)c(O)cc2O)cn1 | 2.73 µM | 2.08 µM
25 | NS(=O)(=O)c1ccc(CNC(=O)[C@H]2Cc3ccccc3CN2C(=O)c2cc(Cl)c(O)cc2O)cc1 | > 10 µM | > 10 µM
26 | COc1cccc(CNC(=O)[C@H]2Cc3ccccc3CN2C(=O)c2cc(Cl)c(O)cc2O)c1 | 1.56 µM | 1.81 µM
27 | O=C(NCc1cccc(Cl)c1Cl)[C@H]1Cc2ccccc2CN1C(=O)c1cc(Cl)c(O)cc1O | 1.11 µM | 2.11 µM
28 | COc1ccc(CNC(=O)[C@H]2Cc3ccccc3CN2C(=O)c2cc(Cl)c(O)cc2O)c(OC)c1 | 1.41 µM | 1.16 µM
29 | O=C(NCc1ccccc1Cl)[C@H]1Cc2ccccc2CN1C(=O)c1cc(Cl)c(O)cc1O | 1.46 µM | 1.71 µM
30 | O=C(NCc1ccccc1)[C@H]1Cc2ccccc2CN1C(=O)c1cc(Cl)c(O)cc1O | 1.67 µM | 1.12 µM
31 | O=C(NCc1ccc(Cl)cc1Cl)[C@H]1Cc2ccccc2CN1C(=O)c1cc(Cl)c(O)cc1O | 0.65 µM | 0.95 µM
32 | COc1ccc(CNC(=O)[C@H]2Cc3ccccc3CN2C(=O)c2cc(Cl)c(O)cc2O)cc1OC | 1.71 µM | 1.66 µM
33 | CS(=O)(=O)c1ccc(CNC(=O)[C@H]2Cc3ccccc3CN2C(=O)c2cc(Cl)c(O)cc2O)cc1 | 2.66 µM | 0.95 µM
34 | CS(=O)(=O)c1cccc(CNC(=O)[C@H]2Cc3ccccc3CN2C(=O)c2cc(Cl)c(O)cc2O)c1 | > 10 µM | 3.87 µM
35 | COc1ccccc1CNC(=O)[C@H]1Cc2ccccc2CN1C(=O)c1cc(Cl)c(O)cc1O | 1.16 µM | 0.95 µM
